Here are results for 7 compounds from patent US20240342199A1, “COMBINATION THERAPIES TARGETING MITOCHONDRIA FOR CANCER THERAPY” (The Wistar Institute of Anatomy and Biology, priority 2014, published 2024).

Test [1] deals with Ser473-phosphorylated Akt (pAkt). Kind of test: Ser473-phosphorylated Akt in patient-derived organotypic cultures. In kind it is cell-based, Human. The settings on record: tumor organoids, 48 h. How it is done:
Organotypic cultures. Short-term organotypic cultures from the different patient samples were established as described previously. Briefly, precise thick tissue slices (300 μm) were obtained from each case by vibratome serial cutting (VT1200, Leica Microsystems, Milan, Italy), and cultured in six-well plates on organotypic inserts (Millicell PICM ORG, Merck Millipore) for up to 48 h in 1 ml of Ham-F12 complete medium supplemented with vehicle (DMSO, 2.5 μl), pan-PI3K inhibitor LY294002 (50 or 100 μM) or PX-886 (2.5, 5 or 10 μM), or mitochondrial-targeted small molecule Heat Shock Protein-90 (Hsp90) inhibitor, 10 Gamitrinib (GA mitochondrial matrix inhibitor, 10 or 25 μM), or the combination of PX-886 plus Gamitrinib (each agent used at 10 μM). At the end of the experiment, one tissue slice per condition was formalin-fixed and paraffin-embedded (FFPE), and processed for morphological and immunohistochemical analysis. An additional tissue slice collected at the end of the experiment was embedded in optimal cutting temperature, and snap-frozen for molecular or immunofluorescence studies.

Test [2] has as its system Akt2 (Ser474) in cytosol and mitochondria. Kind of test: Phosphorylated Akt in cytosol and mitochondrial extracts by Western blotting. In kind it is cell-based, Human. The settings on record: pretreatment with 17-AAG; cytosol and mitochondria. How it is done: Subcellular and submitochondrial fractionation. Mitochondrial fractions were isolated using an ApoAlertTM cell fractionation kit (CLONTECH), as described. Submitochondrial fractions comprising outer membrane (OM), inner membrane (IM), inter-membrane space (IMS) and matrix were prepared as described.

Test [3] has as its system Akt phosphorylation. Kind of test: Akt phosphorylation in tumor cell lines by Western blotting. In kind it is cell-based, Human. The settings on record: PC3 cells, AZD6482 (10 μM), (0.4-2 μM) or BKM120 (0.4-2 μM), 48 h.
Test [4] relates to LN229 or PC3 cells. Kind of test: Analysis of bioenergetics (ATP, glucose, lactate, oxygen consumption). In kind it is cell-based, Human. The conditions noted are these: PX-866 (10 μM), AZD6482 (10 μM) or GDC0941 (2 μM) for 48 h.
Test [5] relates to LN229 cells. Kind of test: High-throughput screening: cell viability (resazurin), compounds with DMSO or Gamitrinib. In kind it is cell-based, Human. The conditions noted are these: for inhibition at 0.000128 µM / inhibition at 0.00064 µM / inhibition at 0.0032 µM / inhibition at […] / inhibition at 0.08 µM / inhibition at 0.4 µM / inhibition at 2 µM / inhibition at 10 µM: Homo sapiens, LN-229, read-out: Percent inhibition; for inhibition at 0.000128 µM: compound 0.000128 uM + DMSO (control); for inhibition at 0.00064 µM: compound 0.00064 uM + DMSO (control); for inhibition at 0.0032 µM: compound 0.0032 uM + DMSO (control); for inhibition at […]: compound 0.016 uM + DMSO (control); for inhibition at 0.08 µM: compound 0.08 uM + DMSO (control); for inhibition at 0.4 µM: compound 0.4 uM + DMSO (control); for inhibition at 2 µM: compound 2 uM + DMSO (control); for inhibition at 10 µM: compound 10 uM + DMSO (control). How it is done:
High-throughput screening and synergy experiments. Compounds for the molecular targeted cancer therapeutics were either purchased from SelleckChem or acquired under Material Transfer Agreement (MTA) with the Wistar Institute MTA. Compounds were suspended in DMSO. The purity and identity of the compounds was confirmed by LC/MS for a fraction of the compounds. Source plates with a 10 point dilution series (5-fold dilutions, ranging from 10-0.0001 μmol/L) were prepared for screening. […] Cell viability was determined by the addition of resazurin to a final concentration of 50 μM and incubation for 8 h. Fluorescence intensity (excitation, 560 nm, emission, 590 nm) was determined on an Envision Xcite Multilabel Reader (Perkin-Elmer), and the fractional growth inhibition was determined by normalizing assay wells to the aggregated average responses of positive control (10 μM doxorubicin) and negative control (0.2% DMSO) treatments (n=12).

Test [6] relates to class I PI3K isoforms. The settings on record: cited from earlier work.
Setting [7] is: compound 0.000128 uM + Gamitrinib (1 μM).
Where [8] appears, read: compound 0.00064 uM + Gamitrinib (1 μM).
Where [9] appears, read: compound 0.0032 uM + Gamitrinib (1 μM).
[10] abbreviates: compound 0.08 uM + Gamitrinib (1 μM).
The mark [11] stands for this setting: compound 0.4 uM + Gamitrinib (1 μM).
The mark [12] stands for this setting: compound 2 uM + Gamitrinib (1 μM).
[13] abbreviates: compound 10 uM + Gamitrinib (1 μM).
Setting [14] is: compound 2.56E−05 uM + DMSO (control).
[15] abbreviates: compound 2.56E−05 uM + Gamitrinib (1 μM).
[16] abbreviates: compound 5.12E−06 uM + DMSO (control).
Where [17] appears, read: compound 5.12E−06 uM + Gamitrinib (1 μM).
Where [18] appears, read: compound […] + Gamitrinib (1 μM).

SMILES strings stand for the structures.

As to `C=CCNC1=C2C[C@@H](C)C[C@H](OC)[C@H](O)[C@@H](C)/C=C(\C)[C@H](OC(N)=O)[C@@H](OC)/C=C\C=C(/C)C(=O)NC(=CC1=O)C2=O` [17-AAG, 17-(allylamino)-17-demethoxygeldanamycin], in test [1], the “phosphorylation of Akt on Ser473” value is recorded as “had no effect”. Further, the “accumulation of phosphorylated Akt in response to PX-866” value in test [2] is “abolished the accumulation of phosphorylated Akt”.
Turning to `Cc1cc([C@@H](C)Nc2ccccc2C(=O)O)c2nc(N3CCOCC3)cc(=O)n2c1` [AZD6482], the Akt phosphorylation result in test [3] is recorded as “Akt phosphorylation was observed”. In addition, in test [4], the ATP production entry is “reduced ATP production”. In test [4], the glucose utilization entry is “less glucose utilization”. In test [4], the lactate production entry is “less”. Also, the inhibition at 0.000128 µM in test [5] came to 11.8%. In test [5], the inhibition at 0.00064 µM is -10.5%. Moreover, the inhibition at 0.0032 µM in test [5] was -4.1%. Moreover, in test [5], the inhibition at […] came out at 10.8%. Besides, the inhibition at 0.08 µM in test [5] was determined as 21.7%. The inhibition at 0.4 µM in test [5] is -7.43%. For the same compound, the inhibition at 2 µM in test [5] was determined as 5.91%. Moreover, the inhibition at 10 µM in test [5] was 43.4%. Besides, the Percent inhibition in test [5] (setting [7]) was determined as 123.03%; in test [5] (setting [8]) it was 128.16%; in test [5] (setting [9]), 123.40%; in test [5] (setting [10]), 111.71%; in test [5] (setting [11]) it was 114.08%; in test [5] (setting [12]), 133.90%. Further, the Percent inhibition in test [5] (setting [13]) is 141.10%; in test [5] (setting [14]) it was −2.03%; in test [5] (setting [15]), 119.70%; in test [5] (setting [16]), 3.23%; in test [5] (setting [17]) it was 129.84%; in test [5] (setting [18]), 118.13%.
For `Cn1c(=O)n(-c2ccc(C(C)(C)C#N)cc2)c2c3cc(-c4cnc5ccccc5c4)ccc3ncc21` [BEZ235], the inhibition at 0.000128 µM in test [5] is -21.4%. In addition, the inhibition at 0.00064 µM in test [5] was found to be 23.8%. In test [5], the inhibition at 0.0032 µM came to 60.7%. Besides, the inhibition at […] in test [5] was determined as 74.6%. Besides, the inhibition at 0.08 µM in test [5] amounted to 62.6%. In addition, the inhibition at 0.4 µM in test [5] was 65.1%. Moreover, the inhibition at 2 µM in test [5] was found to be 67.6%. In addition, in test [5], the inhibition at 10 µM came to 71.6%. For the same compound, the Percent inhibition is on record as 122.82% in test [5] (setting [7]); 127.29% in test [5] (setting [8]); 134.66% in test [5] (setting [9]); 133.41% in test [5] (setting [10]); 140.20% in test [5] (setting [11]); 137.11% in test [5] (setting [12]). The Percent inhibition is 141.44% in test [5] (setting [13]); −9.35% in test [5] (setting [14]); 121.84% in test [5] (setting [15]); −7.25% in test [5] (setting [16]); 119.42% in test [5] (setting [17]); 145.76% in test [5] (setting [18]).
For the compound `Nc1cc(C(F)(F)F)c(-c2cc(N3CCOCC3)nc(N3CCOCC3)n2)cn1` [BKM120], in test [3], the Akt phosphorylation result is listed as “Akt phosphorylation was observed”. The inhibition at 0.000128 µM in test [5] worked out at 4.38%. For the same compound, the inhibition at 0.00064 µM in test [5] came to 16.2%. The inhibition at 0.0032 µM in test [5] worked out at 3.42%. Also, the inhibition at […] in test [5] is 8.78%. Besides, the inhibition at 0.08 µM in test [5] was 17.7%. Besides, the inhibition at 0.4 µM in test [5] is 50.4%. Further, in test [5], the inhibition at 2 µM stood at 54.9%. For the same compound, in test [5], the inhibition at 10 µM came out at 61.7%. Also, the Percent inhibition came to 132.78% in test [5] (setting [7]); 130.27% in test [5] (setting [8]); 140.77% in test [5] (setting [9]); 153.91% in test [5] (setting [10]); 150.75% in test [5] (setting [11]); 151.13% in test [5] (setting [12]). For the same compound, the Percent inhibition in test [5] (setting [13]) stood at 152.02%; in test [5] (setting [14]), 19.80%; in test [5] (setting [15]), 136.65%; in test [5] (setting [16]), 14.64%; in test [5] (setting [17]), 130.32%; in test [5] (setting [18]), 138.62%.
In the case of `CS(=O)(=O)N1CCN(Cc2cc3nc(-c4cccc5[nH]ncc45)nc(N4CCOCC4)c3s2)CC1` [GDC0941], in test [3], the Akt phosphorylation entry is “Akt phosphorylation was observed”. Further, the ATP production result in test [4] is given as “reduced ATP production”. Moreover, the glucose utilization result in test [4] is listed as “less glucose utilization”. Also, the lactate production entry in test [4] was “less”. The inhibition at 0.000128 µM in test [5] is -14.7%. In addition, the inhibition at 0.00064 µM in test [5] stood at 7.03%. Also, in test [5], the inhibition at 0.0032 µM is -17.3%. The inhibition at […] in test [5] was -0.14%. Further, the inhibition at 0.08 µM in test [5] was determined as 21.2%. Moreover, in test [5], the inhibition at 0.4 µM was 29.8%. Moreover, the inhibition at 2 µM in test [5] amounted to 58.9%. Moreover, the inhibition at 10 µM in test [5] was determined as 64.8%. The Percent inhibition in test [5] (setting [7]) was determined as 124.43%; in test [5] (setting [8]), 133.55%; in test [5] (setting [9]), 19.20%; in test [5] (setting [10]), 121.46%; in test [5] (setting [11]) it was 134.46%; in test [5] (setting [12]), 140.39%. Also, the Percent inhibition in test [5] (setting [13]) is recorded as 156.27%; in test [5] (setting [14]), −27.15%; in test [5] (setting [15]), 104.45%; in test [5] (setting [16]), 0.41%; in test [5] (setting [17]) it was 125.94%; in test [5] (setting [18]), 126.85%.
As for `COc1ncc(-c2ccc3nccc(-c4ccnnc4)c3c2)cc1NS(=O)(=O)c1ccc(F)cc1F` [GSK458], the inhibition at 0.000128 µM in test [5] was 8.89%. Besides, the inhibition at 0.00064 µM in test [5] is 11.3%. The inhibition at 0.0032 µM in test [5] stood at 38.1%. The inhibition at […] in test [5] came out at 52.4%. Besides, the inhibition at 0.08 µM in test [5] was found to be 67.5%. The inhibition at 0.4 µM in test [5] worked out at 58.1%. The inhibition at 2 µM in test [5] came out at 63.1%. The inhibition at 10 µM in test [5] turned out to be 53.6%. Besides, the Percent inhibition in test [5] (setting [7]) came out at 135.48%; in test [5] (setting [8]), 139.64%; in test [5] (setting [9]), 139.92%; in test [5] (setting [10]), 133.47%; in test [5] (setting [11]), 138.84%; in test [5] (setting [12]) it was 142.85%. Moreover, the Percent inhibition came out at 156.27% in test [5] (setting [13]); 1.66% in test [5] (setting [14]); 128.82% in test [5] (setting [15]); 17.03% in test [5] (setting [16]); 132.69% in test [5] (setting [17]); 136.49% in test [5] (setting [18]).
Consider `FC(F)c1nc2ccccc2n1-c1nc(N2CCOCC2)nc(N2CCOCC2)n1` [ZSTK474], for which the PI3K activity in test [6] (1 μM) was 4.7 % of the control level. Also, the IC50 in test [6] (class I PI3K isoforms, mostly PI3Kδ) was 37 nM.
